Among the test systems are A498 renal; HCT-15 colon; MCF7 breast; MDA-MB-435; NCI-H522 lung; SF-539 CNS; SNB-19 CNS; SW-620 colon; UACC-257 melanoma; IGROV1 ovarian.
Holding throughout (assay): inhibition of tumour cell growth, NCI panel, 48 h

Structures are written as SMILES. Values joined by “and” are separate entries in the source; they are usually repeats but may differ in a detail not shown here. Equal values may be shown once.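 96-well plates; 48 h exposure; 5 concentrations. Endpoints by linear interpolation between flanking doses. Not reached: highest tested concentration assigned. GI50 is the concentration that inhibits growth by half. The concentration for full growth arrest is given as TGI.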

Turning to `COc1ccc(-c2ncnc3c2ncn3CC#CCCl)cc1`, the GI50 with A498 renal was 2.15 µM; in the experiment with HCT-15 colon it was 4.07 µM; with MCF7 breast it was 2.48 µM; in the experiment with MDA-MB-435, 2.71 µM; in the experiment with NCI-H522 lung, 3.09 µM; in the experiment on SF-539 CNS, 6.48 µM. Also, the GI50 is 4.87 µM with SNB-19 CNS, 2.99 µM in the experiment with SW-620 colon and 5.74 µM with UACC-257 melanoma. The TGI with A498 renal worked out at 12.5 µM; with HCT-15 colon it was 17.7 µM; with MCF7 breast, 12.2 µM; in the experiment with MDA-MB-435, 11.5 µM; in the experiment on NCI-H522 lung it was 14 µM; with SF-539 CNS, 20.9 µM. Besides, the TGI in the experiment on SNB-19 CNS came out at 18.1 µM; with SW-620 colon, 12.4 µM; in the experiment with UACC-257 melanoma, 21.8 µM.

On to `O=C(O)Cc1cccc2c(=O)cc(-c3ccccc3)oc12`, for which the GI50 was 307 µM in the experiment with A498 renal; 343 µM in the experiment on HCT-15 colon; 518 µM with IGROV1 ovarian; 581 µM in the experiment with MCF7 breast; 518 µM with MDA-MB-435; 285 µM in the experiment with NCI-H522 lung. Besides, the GI50 in the experiment with SF-539 CNS was 398 µM; with SNB-19 CNS, over 909 µM; in the experiment on SW-620 colon, 313 µM; in the experiment with UACC-257 melanoma, 614 µM. For the same compound, the TGI with A498 renal was 250 µM and 979 µM; in the experiment with HCT-15 colon, 250 µM and > 1000 µM; in the experiment with IGROV1 ovarian, over 1000 µM; in the experiment with MCF7 breast it was 250 µM and > 1000 µM; in the experiment on MDA-MB-435 it was over 1000 µM; in the experiment on NCI-H522 lung, 250 µM and > 773 µM. Also, the TGI with SF-539 CNS was > 250 µM and 838 µM; in the experiment with SNB-19 CNS, over 1000 µM; with SW-620 colon, over 1000 µM; in the experiment on UACC-257 melanoma, over 1000 µM.

`COC(=O)/C=C1/SC(=Nc2cccc(Cl)c2)N(CCc2c[nH]c3ccc(O)cc23)C1=O`: the GI50 with HCT-15 colon was 1.5 µM; in the experiment on IGROV1 ovarian, 2 µM; with MCF7 breast, 1.69 µM; with MDA-MB-435, 1.68 µM; with NCI-H522 lung, 1.63 µM; with SF-539 CNS, 1.63 µM. Also, the figures for the GI50 in the experiment with SNB-19 CNS and with UACC-257 melanoma were 2.57 µM and 1.96 µM, respectively. In addition, the TGI turned out to be 3.32 µM in the experiment with HCT-15 colon; 4.35 µM with IGROV1 ovarian; 4.73 µM with MCF7 breast; 3.96 µM in the experiment on MDA-MB-435; 3.4 µM in the experiment on NCI-H522 lung; 3.24 µM in the experiment with SF-539 CNS. Moreover, the TGI in the experiment with SNB-19 CNS was 6.88 µM; with UACC-257 melanoma, 3.99 µM.

For `CC1(C)N=C(N)N=C(N)N1c1ccc(CNC(=O)Nc2ccc(S(=O)(=O)F)c(Cl)c2)c(Cl)c1`, the GI50 in the experiment on A498 renal is 9.5 µM; with HCT-15 colon it was 4.87 µM; in the experiment with IGROV1 ovarian, 0.0805 µM; in the experiment on MCF7 breast it was 0.536 µM; in the experiment on MDA-MB-435, 0.183 µM; in the experiment on NCI-H522 lung, 0.624 µM. The GI50 in the experiment on SF-539 CNS is 1.11 µM; in the experiment with SNB-19 CNS, 3.64 µM; in the experiment on SW-620 colon it was 0.122 µM; with UACC-257 melanoma it was 5.11 µM. In addition, the TGI with A498 renal is over 100 µM; in the experiment with HCT-15 colon, over 100 µM; with IGROV1 ovarian, over 100 µM; with MCF7 breast it was over 100 µM; in the experiment with MDA-MB-435 it was over 100 µM; with NCI-H522 lung it was 40.2 µM. Further, the TGI in the experiment with SF-539 CNS is 25 µM; with SNB-19 CNS, over 100 µM; with SW-620 colon, over 100 µM; in the experiment on UACC-257 melanoma it was over 100 µM.

For the compound `CCOC(=O)c1ccc(-n2cnc(-c3ccc([N+](=O)[O-])cc3)c2)cc1`, the TGI in the experiment on A498 renal is over 100 µM; with HCT-15 colon, over 100 µM; with IGROV1 ovarian, over 100 µM; with MCF7 breast, over 100 µM; in the experiment on MDA-MB-435, over 100 µM; with NCI-H522 lung, 36 µM. Besides, the TGI in the experiment on SF-539 CNS, in the experiment with SNB-19 CNS, with SW-620 colon and in the experiment with UACC-257 melanoma was over 100 µM in each case.

On to `CC1(C)Oc2ccc3ccc(=O)oc3c2C(O)C1O` (stereo unspecified), for which the TGI in the experiment on A498 renal, in the experiment on HCT-15 colon, in the experiment with IGROV1 ovarian, in the experiment with MCF7 breast, with MDA-MB-435 and with NCI-H522 lung was over 100 µM each time. For the same compound, the TGI was 47.8 µM in the experiment on SF-539 CNS, over 100 µM with SNB-19 CNS, over 100 µM with SW-620 colon and 94.9 µM in the experiment with UACC-257 melanoma.

Turning to `Cc1ccc(S(=O)(=O)ON2C(=O)c3cccc4cc([N+](=O)[O-])cc(c34)C2=O)cc1`, the TGI in the experiment on HCT-15 colon, in the experiment on IGROV1 ovarian, with MCF7 breast, with MDA-MB-435, in the experiment on NCI-H522 lung and in the experiment on SNB-19 CNS was over 100 µM throughout. Besides, the TGI in the experiment with SW-620 colon and with UACC-257 melanoma was over 100 µM each time.

As to `CSc1cc([C@@H]2C[C@H]2c2ccc(Cl)cc2)on1`, the GI50 with HCT-15 colon was 10.8 µM; in the experiment with IGROV1 ovarian it was 14.8 µM; with MCF7 breast, 16.3 µM; in the experiment on MDA-MB-435, 16.8 µM; in the experiment on NCI-H522 lung it was 6.91 µM; with SNB-19 CNS, 27.4 µM. The GI50 was 20.7 µM in the experiment on SW-620 colon and 15.8 µM in the experiment with UACC-257 melanoma. In addition, the TGI in the experiment with HCT-15 colon is 36.9 µM; with IGROV1 ovarian, over 100 µM; in the experiment with MCF7 breast, 41 µM; with MDA-MB-435, 45.1 µM; in the experiment with NCI-H522 lung, 45.9 µM; in the experiment on SNB-19 CNS, over 100 µM. The TGI with SW-620 colon is 59.8 µM; in the experiment on UACC-257 melanoma, 35.6 µM.

As to `CN(C)c1ccc(/C=N/NC(N)=S)nc1`, the GI50 with A498 renal is 1.92 µM; in the experiment with HCT-15 colon, 4.11 µM; with MCF7 breast, 1.64 µM; in the experiment on MDA-MB-435, 4.01 µM; in the experiment with NCI-H522 lung, 1.2 µM; with SF-539 CNS it was 1.81 µM. The GI50 was 5.64 µM with SNB-19 CNS, 3.14 µM with SW-620 colon and 24.4 µM in the experiment with UACC-257 melanoma. Also, the TGI in the experiment on A498 renal was 9.37 µM; with HCT-15 colon, over 100 µM; in the experiment with MCF7 breast it was over 100 µM; in the experiment with MDA-MB-435, over 100 µM; in the experiment with NCI-H522 lung, over 100 µM; in the experiment on SF-539 CNS, over 100 µM. Also, the TGI with SNB-19 CNS, in the experiment with SW-620 colon and in the experiment on UACC-257 melanoma was over 100 µM each time.

Values taken from PubChem BioAssay (NCI).
